Source: US20250195536A1, “BICYCLOOCTANE KRAS INHIBITORS” (Incyte Corporation, priority 2023, published 2025)

Assays:
[1] = target: KRAS G12D (Homo sapiens, UniProt P01116, G12D); assay: GDP-GTP exchange assay (KRAS G12D); type: biochemical; conditions: bodipy-GDP/GppNHp exchange with SOS1; 4 h pre-incubation, 2 h reaction;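 further: one dagger IC50 up to 100 nM and two daggers above 100 nM up to 1 μM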
Procedure, shortened: (§1)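 IC50 came from a four-parameter fit of fluorescence loss (485/520 nm) as SOS1 (150 nM) swapped bodipy-GDP for GppNHp (500 μM) on 2.5 nM KRAS, final concentrations. Compounds were pre-incubated 4 h at r.t. (pH 7.5 Hepes, 10 mM MgCl2); exchange ran 2 h (G12D) or 3 h (G12V).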

[2] = target: KRAS G12V (Homo sapiens, UniProt P01116, G12V); assay: GDP-GTP exchange assay (KRAS G12V); type: biochemical; conditions: bodipy-GDP/GppNHp exchange with SOS1; 3 h incubation after GppNHp-SOS1;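 further: one dagger IC50 up to 100 nM and two daggers above 100 nM up to 1 μM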
Procedure, shortened: as §1

[3] = Caco2 assay (permeability, Papp A-B); type: in vitro ADME; conditions: human, Caco-2, absorptive direction (A-B), 50 μM test compound, 4% BSA in receiver
Procedure, shortened: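 Absorptive (A-B) Papp: 50 μM test compound in HBSS added to apical side of 22-25-day Caco-2 monolayers (TEER 300 Ω·cm^2), receiver buffer containing 4% BSA. After 120 min at 37 °C, 5% CO2, both sides analysed by LCMS; Papp calculated from flux rate normalized to area and donor amount.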

Chain of KRAS G12V (P01116 1-188 isoform P01116-2 G12V): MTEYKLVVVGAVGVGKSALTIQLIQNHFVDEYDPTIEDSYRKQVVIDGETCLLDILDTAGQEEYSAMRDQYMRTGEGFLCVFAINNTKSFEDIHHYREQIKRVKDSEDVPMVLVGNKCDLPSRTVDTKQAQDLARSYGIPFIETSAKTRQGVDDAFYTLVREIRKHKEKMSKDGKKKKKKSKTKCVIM
Chain of KRAS G12D (P01116 1-188 isoform P01116-2 G12D): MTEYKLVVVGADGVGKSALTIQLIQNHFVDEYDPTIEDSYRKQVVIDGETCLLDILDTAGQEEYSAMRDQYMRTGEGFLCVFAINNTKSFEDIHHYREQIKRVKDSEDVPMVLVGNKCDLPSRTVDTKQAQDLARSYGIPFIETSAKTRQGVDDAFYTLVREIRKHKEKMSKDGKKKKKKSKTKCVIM

Compound	G12D_exchange (KRAS_G12D exchange assay IC50) [1]	G12V_exchange (KRAS_G12V exchange assay IC50) [2]	Papp A→B at 120 min, 50 μM [3] [×10⁻⁶ cm/s]
Cc1c(N2C[C@@H]3C[C@H](C2)N(C(=O)C2CC2)[C@H]3c2cc3c(C)nc4c(F)c(-c5cccc(Cl)c5Cl)c(CCC#N)cc4c3n2[C@H]2[C@H]3CN[C@@H]2C3)ccnc1F (atropisomer, axis not shown; (Ra)) [Example 76, 3-((Ra)-1-((1R,4R,5S)-2-azabicyclo[2.1.1]hexan-5-yl)-2-((1S,5R,7R)-6-(cyclopropanecarbonyl)-3-(2-fluoro-3-methylpyridin-4-yl)-3,6-diazabicyclo[3.2.1]octan-7-yl)-7-(2,3-dichlorophenyl)-6-fluoro-4-methyl-1H-pyrrolo[3,2-c]quinolin-8-yl)propanenitrile]	†	†	0.5 to 1
COc1cc(N2C[C@@H]3C[C@H](C2)N(C(=O)C2CC2)[C@H]3c2cc3c(C)nc4c(F)c(-c5cccc(Cl)c5Cl)c(CCC#N)cc4c3n2[C@H]2[C@H]3CN[C@@H]2C3)cc(C)n1 (atropisomer, axis not shown; (Ra)) [Example 78, 3-((Ra)-1-((1R,4R,5S)-2-azabicyclo[2.1.1]hexan-5-yl)-2-((1S,5R,7R)-6-(cyclopropanecarbonyl)-3-(2-methoxy-6-methylpyridin-4-yl)-3,6-diazabicyclo[3.2.1]octan-7-yl)-7-(2,3-dichlorophenyl)-6-fluoro-4-methyl-1H-pyrrolo[3,2-c]quinolin-8-yl)propanenitrile]	†	†	≤ 0.5
Cc1cc(N2C[C@@H]3C[C@H](C2)N(C(=O)C2CC2)[C@H]3c2cc3c(C)nc4c(F)c(-c5cccc(Cl)c5Cl)c(CCC#N)cc4c3n2[C@H]2[C@H]3CN[C@@H]2C3)cc(F)n1 (atropisomer, axis not shown; (Ra)) [Example 79, 3-((Ra)-1-((1R,4R,5S)-2-azabicyclo[2.1.1]hexan-5-yl)-2-((1S,5R,7R)-6-(cyclopropanecarbonyl)-3-(2-fluoro-6-methylpyridin-4-yl)-3,6-diazabicyclo[3.2.1]octan-7-yl)-7-(2,3-dichlorophenyl)-6-fluoro-4-methyl-1H-pyrrolo[3,2-c]quinolin-8-yl)propanenitrile]	†	†	≤ 0.5
Cc1cc(N2C[C@@H]3C[C@H](C2)N(C(=O)C2CC2)[C@H]3c2cc3c(C)nc4c(F)c(-c5cccc(Cl)c5Cl)c(CCC#N)cc4c3n2[C@H]2[C@H]3CN[C@@H]2C3)cc(=O)o1 (atropisomer, axis not shown; (Ra)) [Example 80]	†	†	≤ 0.5
CCOc1cc(N2C[C@@H]3C[C@H](C2)N(C(=O)C2CC2)[C@H]3c2cc3c(C)nc4c(F)c(-c5cccc(Cl)c5Cl)c(CCC#N)cc4c3n2[C@H]2[C@H]3CN[C@@H]2C3)ccn1 (atropisomer, axis not shown; (Ra)) [Example 81, 3-((Ra)-1-((1R,4R,5S)-2-azabicyclo[2.1.1]hexan-5-yl)-2-((1S,5R,7R)-6-(cyclopropanecarbonyl)-3-(2-ethoxypyridin-4-yl)-3,6-diazabicyclo[3.2.1]octan-7-yl)-7-(2,3-dichlorophenyl)-6-fluoro-4-methyl-1H-pyrrolo[3,2-c]quinolin-8-yl)propanenitrile]	†	†	≤ 0.5
COCCOc1cc(N2C[C@@H]3C[C@H](C2)N(C(=O)C2CC2)[C@H]3c2cc3c(C)nc4c(F)c(-c5cccc(Cl)c5Cl)c(CCC#N)cc4c3n2[C@H]2[C@H]3CN[C@@H]2C3)ccn1 (atropisomer, axis not shown; (Ra)) [Example 83, 3-((Ra)-1-((1R,4R,5S)-2-azabicyclo[2.1.1]hexan-5-yl)-2-((1S,5R,7R)-6-(cyclopropanecarbonyl)-3-(2-(2-methoxyethoxy)pyridin-4-yl)-3,6-diazabicyclo[3.2.1]octan-7-yl)-7-(2,3-dichlorophenyl)-6-fluoro-4-methyl-1H-pyrrolo[3,2-c]quinolin-8-yl)propanenitrile]	†	†	≤ 0.5
Cc1cc(N2C[C@@H]3C[C@H](C2)N(C(=O)C2CC2)[C@H]3c2cc3c(C)nc4c(F)c(-c5cccc(Cl)c5Cl)c(CCC#N)cc4c3n2[C@H]2[C@H]3CN[C@@H]2C3)cc(C(F)F)n1 (atropisomer, axis not shown; (Ra)) [Example 84, 3-((Ra)-1-((1R,4R,5S)-2-azabicyclo[2.1.1]hexan-5-yl)-2-((1S,5R,7R)-6-(cyclopropanecarbonyl)-3-(2-(difluoromethyl)-6-methylpyridin-4-yl)-3,6-diazabicyclo[3.2.1]octan-7-yl)-7-(2,3-dichlorophenyl)-6-fluoro-4-methyl-1H-pyrrolo[3,2-c]quinolin-8-yl)propanenitrile]	†	†	≤ 0.5
Cc1nc2c(F)c(-c3cccc(Cl)c3Cl)c(CCC#N)cc2c2c1cc([C@H]1[C@H]3C[C@H](CN(c4cc(C(F)F)c(F)cn4)C3)N1C(=O)C1CC1)n2[C@H]1[C@H]2CN[C@@H]1C2 (atropisomer, axis not shown; (Ra)) [Example 85, 3-((Ra)-1-((1R,4R,5S)-2-azabicyclo[2.1.1]hexan-5-yl)-2-((1S,5R,7R)-6-(cyclopropanecarbonyl)-3-(4-(difluoromethyl)-5-fluoropyridin-2-yl)-3,6-diazabicyclo[3.2.1]octan-7-yl)-7-(2,3-dichlorophenyl)-6-fluoro-4-methyl-1H-pyrrolo[3,2-c]quinolin-8-yl)propanenitrile]	†	†	≤ 0.5
Cc1nc2c(F)c(-c3cccc(Cl)c3Cl)c(CCC#N)cc2c2c1cc([C@H]1[C@H]3C[C@H](CN(c4cccc(OC(F)F)n4)C3)N1C(=O)C1CC1)n2[C@H]1[C@H]2CN[C@@H]1C2 (atropisomer, axis not shown; (Ra)) [Example 86, 3-((Ra)-1-((1R,4R,5S)-2-azabicyclo[2.1.1]hexan-5-yl)-2-((1S,5R,7R)-6-(cyclopropanecarbonyl)-3-(6-(difluoromethoxy)pyridin-2-yl)-3,6-diazabicyclo[3.2.1]octan-7-yl)-7-(2,3-dichlorophenyl)-6-fluoro-4-methyl-1H-pyrrolo[3,2-c]quinolin-8-yl)propanenitrile]	†	†	≤ 0.5
